We go through 18 compounds from ChEMBL document CHEMBL5143680, “Cytotoxic Bromine- and Iodine-Containing Cytochalasins Produced by the Mangrove Endophytic Fungus Phomopsis sp. QYM-13 Using the OSMAC Approach” (J Nat Prod, 2022).

A value given as a limit tells only on which side of the number the result lay.

One data set has as its system MDA-MB-435. The experiment in a line: Cytotoxicity against human MDA-MB-435 cells measured after 72 hrs by MTT assay. It counts as functional, cell-based. Particulars: MDA-MB-435, 72 h.
The next data set concerns HepG2. The experiment in a line: Cytotoxicity against human HepG2 cells measured after 72 hrs by MTT assay. The format is functional, cell-based. The note with it: HepG2, 72 h.
For a further data set, the system named is A549. Description: Cytotoxicity against human A549 cells measured after 72 hrs by MTT assay. It counts as functional, cell-based. Particulars: A549, 72 h.
In a further data set the test system is SNB-19. The experiment in a line: Cytotoxicity against human SNB-19 cells measured after 72 hrs by MTT assay. The format is functional, cell-based. Particulars: SNB-19, 72 h.
A further data set concerns MDA-MB-231. The experiment in a line: Cytotoxicity against human MDA-MB-231 cells measured after 72 hrs by MTT assay. The note with it: MDA-MB-231, 72 h. The format is functional, cell-based.
The nature of data set [1]: Cytotoxicity against African green monkey Vero cells measured after 72 hrs by MTT assay. The note with it: African green monkey (Chlorocebus sabaeus). It counts as toxicity, cell-based.

For the compound `C=C1[C@@H](C)[C@H]2[C@H](Cc3ccccc3)NC(=O)[C@]23[C@H](OC(C)=O)[C@@H]2O[C@H]2[C@](C)(O)C[C@@H](C)C/C=C/[C@H]3[C@@H]1O`, the IC50 is 42 µM in the data set on MDA-MB-435; above 50 µM with HepG2; above 50 µM with A549; above 50 µM in the data set on SNB-19; above 50 µM in the data set with MDA-MB-231. The compound also gave an IC50 at 72 h in data set [1] above 50 µM.

Regarding `CC(=O)O[C@@H]1/C=C/[C@](C)(O)C[C@@H](C)C/C=C/[C@H]2C=C(C)[C@@H](C)[C@H]3[C@H](Cc4ccccc4)NC(=O)[C@]321`, the IC50 in the data set with MDA-MB-435 is 34 µM; in the data set with HepG2, above 50 µM; in the data set with A549, above 50 µM; with SNB-19, above 50 µM; in the data set with MDA-MB-231, above 50 µM. In addition, in data set [1], the IC50 at 72 h is above 50 µM.

With `C=C1/C=C/[C@@H](OC(C)=O)[C@@]23C(=O)N[C@@H](Cc4ccccc4)[C@@H]2[C@H](C)C(=C)[C@@H](O)[C@@H]3/C=C/C[C@H](C)C1`, the IC50 in the data set on MDA-MB-435 is 11 µM; with HepG2 it was above 50 µM; in the data set on A549, above 50 µM; in the data set on SNB-19, 16 µM; with MDA-MB-231, 35 µM. The same compound returned an IC50 at 72 h in data set [1] of 14 µM.

In the case of `CC1=C[C@@H]2/C=C/C[C@H](C)C[C@H](C)[C@@H]3O[C@H]3C(=O)[C@]23C(=O)N[C@@H](Cc2ccccc2)[C@@H]3[C@@H]1C`, the IC50 with MDA-MB-435 was 44 µM; in the data set with HepG2, above 50 µM; with A549, above 50 µM; in the data set with SNB-19 it was above 50 µM; in the data set on MDA-MB-231 it was above 50 µM. Further, in data set [1], the concentration for half-maximal inhibition (IC50) at 72 h is above 50 µM.

For the compound `C=C1[C@@H](C)[C@H]2[C@H](Cc3ccccc3)NC(=O)[C@]23[C@H](OC(C)=O)/C=C/C(C)=C\[C@@H](C)C/C=C/[C@H]3[C@@H]1O`, the IC50 in the data set on MDA-MB-435 is 12 µM; in the data set on HepG2 it was above 50 µM; with A549 it was above 50 µM; with SNB-19, 42 µM; in the data set with MDA-MB-231, 45 µM. Moreover, the IC50 at 72 h in data set [1] was determined as 25 µM.

`CC1=C[C@@H]2/C=C/C[C@H](C)C[C@@](C)(O)/C=C/[C@@H](O)[C@]23C(=O)N[C@@H](Cc2ccccc2)[C@@H]3[C@@H]1C`: the IC50 with MDA-MB-435 is 38 µM; in the data set on HepG2, above 50 µM; with A549 it was 38 µM; in the data set on SNB-19, above 50 µM; in the data set on MDA-MB-231 it was above 50 µM. The compound further showed an IC50 at 72 h in data set [1] of 44 µM.

`C=C1[C@@H](C)[C@H]2[C@H](Cc3ccccc3)NC(=O)[C@@]23[C@@H]([C@@H]2[C@H](/C=C(/C)C[C@@H](C)C[C@H]2Br)[C@H]3OC(C)=O)[C@@H]1O`: the IC50 is 7.4 µM in the data set with MDA-MB-435; above 50 µM with HepG2; above 50 µM in the data set with A549; above 50 µM in the data set with SNB-19; 44 µM with MDA-MB-231. The IC50 at 72 h in data set [1] was 18 µM.

Take `C=C1[C@@H](C)[C@H]2[C@H](Cc3ccccc3)NC(=O)[C@]23[C@H](O)/C=C/[C@](C)(O)C[C@@H](C)C/C=C/[C@H]3[C@@H]1O`: the IC50 with MDA-MB-435 was 4.9 µM; in the data set with HepG2, above 50 µM; in the data set on A549, above 50 µM; in the data set with SNB-19, 6.8 µM; in the data set on MDA-MB-231, 31 µM. The compound further came in with an IC50 at 72 h in data set [1] above 50 µM.

With `C=C1[C@@H](C)[C@H]2[C@H](Cc3ccccc3)NC(=O)[C@@]23[C@H]2[C@@H]4[C@H](C(C)=C[C@@H](C)C[C@H]4O[C@H]12)[C@H]3OC(C)=O`, the IC50 is 36 µM in the data set on MDA-MB-435; above 50 µM with HepG2; above 50 µM in the data set on A549; above 50 µM in the data set with SNB-19; above 50 µM in the data set on MDA-MB-231. For the same compound, the IC50 at 72 h in data set [1] turned out to be 34 µM.

On to `CC1=C[C@@H]2/C=C/C[C@H](C)C[C@@](C)(O)[C@@H]3O[C@H]3C(=O)[C@]23C(=O)N[C@@H](Cc2ccccc2)[C@@H]3[C@@H]1C`, for which the IC50 was 32 µM with MDA-MB-435; above 50 µM with HepG2; 28 µM in the data set with A549; above 50 µM with SNB-19; 11 µM in the data set on MDA-MB-231. In data set [1], this compound had an IC50 at 72 h of 29 µM.

For `CC(=O)O[C@@H]1/C=C/[C@](C)(O)C[C@@H](C)C/C=C/[C@H]2C=C(C(=O)O)[C@@H](C)[C@H]3[C@H](Cc4ccccc4)NC(=O)[C@]321`, the IC50 with MDA-MB-435, in the data set on HepG2, in the data set with A549, in the data set with SNB-19 and with MDA-MB-231 was above 50 µM each time. This compound also gave an IC50 at 72 h in data set [1] above 50 µM.

As to `C=C1[C@@H](C)[C@H]2[C@H](Cc3ccccc3)NC(=O)[C@@]23[C@H]2[C@@H]4[C@H](C(C)=C[C@@H](C)C[C@H]4O[C@H]12)[C@@H](I)[C@H]3O`, the IC50 in the data set with MDA-MB-435, with HepG2, in the data set with A549, in the data set with SNB-19 and with MDA-MB-231 was above 50 µM in each case. This compound also yielded a half-maximal inhibitory concentration (IC50) at 72 h in data set [1] of 39 µM.

`CC(=O)O[C@@H]1/C=C/[C@](C)(O)C[C@@H](C)C/C=C/[C@H]2C=C(CO)[C@@H](C)[C@H]3[C@H](Cc4ccccc4)NC(=O)[C@]321`: the IC50 in the data set on MDA-MB-435 was 8.2 µM; with HepG2, above 50 µM; with A549, 38 µM; with SNB-19, 6.9 µM; in the data set on MDA-MB-231 it was 42 µM. The same compound yielded an IC50 at 72 h in data set [1] of 22 µM.

As for `C=C1[C@@H](C)[C@H]2[C@H](Cc3ccccc3)NC(=O)[C@]23[C@H](OC(C)=O)/C=C/[C@](C)(O)C[C@@H](C)C/C=C/[C@H]3[C@@H]1O`, the IC50 in the data set on MDA-MB-435 is 0.2 µM; in the data set on HepG2 it was above 50 µM; in the data set on A549 it was above 50 µM; with SNB-19, 26 µM; with MDA-MB-231 it was 42 µM. Further, half-maximal inhibition in data set [1] (IC50 at 72 h) required 40 µM.

Regarding `C[C@H]1C/C=C/[C@H]2C=C(CO)[C@@H](C)[C@H]3[C@H](Cc4ccccc4)NC(=O)[C@]32[C@H](O)/C=C/[C@](C)(O)C1`, the IC50 in the data set with MDA-MB-435 is 25 µM; in the data set on HepG2, above 50 µM; in the data set on A549, above 50 µM; in the data set with SNB-19, above 50 µM; in the data set on MDA-MB-231, above 50 µM. Besides, the IC50 at 72 h in data set [1] is above 50 µM.

As to `C=C1[C@@H](C)[C@H]2[C@H](Cc3ccccc3)NC(=O)[C@@]23[C@H]2[C@@H]4[C@H](C(C)=C[C@@H](C)C[C@H]4O[C@H]12)[C@H]3O`, the IC50 in the data set with MDA-MB-435, in the data set with HepG2, in the data set on A549, in the data set on SNB-19 and with MDA-MB-231 was above 50 µM in each case. In addition, the IC50 at 72 h in data set [1] is above 50 µM.

Take `C=C1[C@@H](C)[C@H]2[C@H](Cc3ccccc3)NC(=O)[C@@]23[C@@H]([C@@H]2[C@H](/C=C(/C)C[C@@H](C)C[C@H]2I)[C@H]3OC(C)=O)[C@@H]1O`: the IC50 in the data set with MDA-MB-435 is 47 µM; in the data set with HepG2, 47 µM; in the data set with A549, 33 µM; with SNB-19, above 50 µM; with MDA-MB-231 it was 43 µM. In addition, the IC50 at 72 h in data set [1] stood at 29 µM.

In the case of `C=C1[C@@H](C)[C@H]2[C@H](Cc3ccccc3)NC(=O)[C@@]23[C@@H]([C@@H]2[C@H](/C=C(/C)C[C@@H](C)C[C@H]2O)[C@H]3OC(C)=O)[C@@H]1O`, the IC50 in the data set on MDA-MB-435 is 45 µM; in the data set on HepG2, above 50 µM; with A549, above 50 µM; in the data set with SNB-19 it was above 50 µM; with MDA-MB-231, above 50 µM. Besides, in data set [1], the IC50 at 72 h is above 50 µM.
